Test results taken from patent US9526712B2, “Methods and agents for preventing and treating plasma cell dyscrasias” (NEW YORK UNIVERSITY, priority 2013, dated 2016).

Experiments:
[1] = system: KMS11 MM cells; experiment: Cellular proliferation by MTT assay (CellTiter 96 AQ); type: cell-based; conditions: Homo sapiens, KMS-11, 72 hr treatment
From the text: (§1) The growth inhibitory activity of SAC was further characterized by MTT assay. These experiments assess cellular proliferation using the CellTiter 96 AQ Non-Radioactive Cell Proliferation Assay (Promega). This assay determines the number of living cells based upon the bioreduction of MTS tetrazolium compound into a colored formazan product. The quantity of product, as measured by absorbance on a microplate reader at 495 nm, is directly proportional to the number of living cells in culture. All cells were seeded in 96-well plates at a density of 5,000 cells per well. After overnight incubation, cells were treated with SAC at the indicated concentrations. After a 72 hr incubation period, proliferation was assessed. Cellular proliferation was expressed as a percentage with vehicle-treated cells set at 100%. See, for example, FIG. 2.
(§2) The cell proliferation assay performed to generate the results presented in FIG. 5, for example, was performed as described elsewhere herein. Briefly, all cells were seeded in 96-well plates at a density of 5000 cells per well. After overnight incubation, cells were treated with a candidate compound at concentrations ranging from 100 nM to 10000 nM. After a 72 hr incubation period, proliferation was assessed using a tetrazolium dye reduction assay (CellTiter 96 AQueous Non-Radioactive Cell Proliferation Assay; Promega, Madison, Wis.). Absorbance was recorded on a microplate reader at 490 nm. Cellular proliferation was expressed as a percentage with vehicle-treated cells set at 100%. Each assay was performed in triplicate with mean values reported.

[2] = system: ARP1 MM cells; experiment: as above; type: cell-based; conditions: Homo sapiens, ARP-1, 72 hr treatment
From the text: as §1, §2

[3] = system: panel of 60 different cancer cell lines; experiment: NCI 60 cell screen growth inhibitory activity; type: cell-based; conditions: NCI 60 cell panel
From the text: Although SAC has been used to treat other types of cancer including colon, lung, breast and liver, the present inventors are unaware of any studies pertaining to its efficacy in MM, MGUS or SMM. One major difference between these types of cancers relates to the fact that those that have been assessed with regard to SAC' s efficacy are solid tumors, whereas MM is a blood cancer. Further to this point, the present inventors submitted SAC for analysis in the Developmental Therapeutics Program at the NCI/NIH. The growth inhibitory activity of SAC was assessed in the NCI 60 cell screen, which is a panel of 60 different cancer cell lines. […] SAC anti-cancer activity must, therefore, be determined empirically for each cancer, due to the lack of predictability of response. Therefore, a compound's ability to act as a therapeutic agent in one cancer, e.g. colon, is not necessarily predictive of its properties with respect to a different cancer, even a related cancer. It is also noteworthy that no MM cell lines are represented in the 60 cell panel. This underscores the fact that, in advance of the present findings, MM cell lines were not thought to be suitable targets for examining SAC anti-cancer activity.

[4] = system: KMS11 and ARP1 multiple myeloma cells; experiment: XBP1 cleavage assay (semi-quantitative RT-PCR); type: cell-based, human; conditions: 0.5 uM SAC, 24 hours
Procedure: The XBP1 cleavage assay used to generate the results presented in FIG. 6 was performed as follows. KMS11 and ARP1 cells were treated with 0.5 uM SAC or 10 ng/ml tunicamycin (TM, positive control) for 24 hours. Total RNA was isolated from lysed cells with the RNeasy Mini kit (Qiagen, Germantown, Md., USA). XBP1 splicing was assessed by semi-quantitative RT-PCR as described previously (Lin, et al. Science, 2007. 318(5852):944-9; Manga et al. Pigment Cell Melanoma Res, 2010. 23(5):627-34; the entire content of each of which is incorporated herein by reference). cDNA was produced from total RNA preps using ImProm-II Reverse Transcription System (Promega). Primers spanning the fragment of XBP1 containing the intron targeted by Irela were used: 5′-[…]-3′ and 5′-[…]-3′. The thermal PCR cycling conditions are as follows: 95° C. for 5 min, 95° C. for 1 min, 58° C. for 30 s, 72° C. for 30 s, and 72° C. for 5 min with 35 cycles of amplification. In order to properly distinguish the PCR products, samples were digested with Pst1 (New England Biolabs, Ipswich, Mass., USA) that only cuts the unspliced cDNA (Calfon et al. Nature, 2002. 415(6867):92-6). Products were then separated on a 2.0% agarose/1× TAE gel and visualized by ethidium bromide.

[5] = system: KMS11 MM cells; experiment: Western blotting of UPR markers and apoptotic marker; type: cell-based, human; conditions: western blot
From the text: In order to investigate the mechanism of SAC mediated ER stress response, the present inventors evaluated key unfolded protein response (UPR) markers including phospho-eIF2α and BIP as well as the apoptotic marker cleaved PARP by standard western blotting techniques. […] See also FIG. 3.

[6] = system: KMS11 and ARP-1 MM cells expressing Gluc; experiment: Gluc (Gaussia luciferase) secretion screen; type: cell-based, human; conditions: 5 μM compound, 24 hours, % RLU relative to DMSO control
From the text: Using decreased protein processing in the secretory pathway as a measurable hallmark of ER stress, the screen described herein employs the naturally secreted Gaussia luciferase (Gluc) as a reporter that can be easily monitored through extracellular release of luciferase activity in real time. KMS11 and ARP-1 MM cells expressing Gluc were exposed to compounds in a natural products library in order to identify those which potentially induce ER stress as measured by inhibition of Gluc secretion. Both KMS11 and ARP-1 are human MM cells lines routinely used in the literature as in vitro models of MM. See, for example, Paterson et al., Br J Haematol, 2004, 124, 595-603; Pedranzini et al., Cancer Res, 2006, 66, 9714-9721; Stein et al., Clin Cancer Res, 2009, 15, 2808-2817; St-Germain J R. et al., Proc Natl Acad Sci USA, 2009, 106, 20127-20132; Gojo et al., Clin Cancer Res, 2002, 8, 3527-3538; Drucker et al., Carcinogenesis, 2006, 27, 197-204; Weiss et al., Br J Cancer, 2012, 107, 1844-1852; and Wang et al., Clin Cancer Res, 2006, 12, 49-56; the entire content of each of which is incorporated herein by reference. […] For screening, KMS11 and ARP1 cells were seeded in 96-well plates and treated with 5 μM of compounds from the Spectrum library (Microsource Discoveries) for 24 hours. Conditioned medium from each compound treatment was harvested to assay Gluc secretion alongside samples treated with DMSO alone, BTZ and TM as controls. Compounds of interest were considered to be those that inhibit Gluc secretion in both cell lines at least 30% after 24 hours treatment. See, for example, FIG. 1. […] For screening, […] Conditioned medium from each compound treatment was harvested to assay Gluc secretion alongside samples treated with DMSO alone, BTZ and TM as controls. Compounds of interest were considered to be those that inhibit Gluc secretion in both cell lines by at least 30% after 24 hours treatment. […]

[7] = system: bone marrow (BM) mononuclear cells isolated from a patient with smoldering multiple myeloma (SMM); experiment: Cellular proliferation of SMM bone marrow mononuclear cells; type: cell-based, human; conditions: 100 nM to 10000 nM, 72 hr
From the text: To explore the effects of SAC in the context of SMM, the present inventors tested the activity of SAC in bone marrow (BM) mononuclear cells isolated from a patient with smoldering multiple myeloma (SMM). To isolate the BM mononuclear cells, heparinized BM samples were freshly obtained from a SMM patient, diluted in PBS, and subjected to Ficoll-Hypaque density separation. Mononuclear cells are carefully collected from the PBS-Ficoll interface, washed in PBS and pelleted. The cell proliferation assay was performed by seeding the SMM BM mononuclear cells in 96-well plates at a density of 5000 cells per well. After overnight incubation, cells were treated with SAC at concentrations ranging from 100 nM to 10000 nM. After a 72 hr incubation period, proliferation was assessed using a tetrazolium dye reduction assay (CellTiter 96 AQueous Non-Radioactive Cell Proliferation Assay; Promega, Madison, Wis.). Absorbance was recorded on a microplate reader at 490 nm. Cellular proliferation was expressed as a percentage with vehicle-treated cells set at 100%. Each assay was performed in triplicate with mean values reported.

SMILES | IC50 [1] | IC50 [2] | mean growth percent across all 60 cell lines [3] | splicing of XBP1 [4] | BIP expression [5] | cleavage of PARP [5] | phosphorylation of eIF2-α [5] | inhibition of Gluc secretion [6] | inhibition of cellular proliferation [7] | inhibition of Gluc secretion ([6]; listed as alliicin)
CCCSC[C@H](N)C(=O)O [SPC, S-propyl cysteine, reference compound] | > 10 µM | > 10 µM | – | – | – | – | – | – | – | –
C=CCSC[C@H](N)C(=O)O [SAC, S-allylcysteine] | 1.5 µM | 1.9 µM | 106 | enhanced splicing of the UPR transcription factor XBP1 | increased BIP expression | cleavage of PARP | enhanced phosphorylation of eIF2-α | inhibited Gluc secretion as effectively as 5 μM BTZ | dose-dependent inhibition of cellular proliferation | –
C=CC[S+]([O-])C[C@H](N)C(=O)O (stereo partly shown) [alliin, Allylcysteine sulfoxide] | – | – | – | – | – | – | – | not found to be effective at inhibiting GLUC secretion | – | did not exhibit an ability to target ER stress mediated pathways
